Converted amounts (≈) assume the structure as drawn. The source made the active and inactive calls. The calls are words filed in the database; no cut-off is given here.
Tests used:
Cricetinae gen. sp. [1] = assay: Oral dose of 20 mg/Kg (30 min prior to instillation of elastase) was tested for the inhibition of elastase-induced lung hemorrhage in hamster; Not active; format: functional, organism-based; details: Cricetulus griseus
Neutrophil elastase = biological target: T1, Neutrophil elastase (Homo sapiens, UniProt P08246); assay: In vitro inhibition of human leukocyte elastase mediated hydrolysis of the synthetic substrate MeO-Suc-Ala-Ala-Pro-Val-pNA
T1 sequence (P08246 whole entry): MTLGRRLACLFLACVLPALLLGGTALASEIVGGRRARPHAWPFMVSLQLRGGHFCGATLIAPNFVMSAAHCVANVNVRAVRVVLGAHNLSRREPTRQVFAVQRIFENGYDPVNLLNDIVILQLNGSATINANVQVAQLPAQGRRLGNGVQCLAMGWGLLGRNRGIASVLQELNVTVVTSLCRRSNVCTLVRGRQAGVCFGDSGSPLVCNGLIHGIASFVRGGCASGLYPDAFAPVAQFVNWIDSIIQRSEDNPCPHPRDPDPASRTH

[2] = Solubility of compound in 0.01 M sodium phosphate buffer at pH = […]; format: physicochemical; details: pH 7.4
[3] = Partition coefficient (logP); format: physicochemical; details: octanol/water
[4] = Selectivity ratio for bovine pancreatic chymotrypsin and HLE
Cricetinae gen. sp. [5] = assay: Oral dose of 20 mg/Kg (30 min prior to instillation of elastase) was tested for the inhibition of elastase-induced lung hemorrhage in hamster; format: functional, Cricetulus griseus
Cricetinae gen. sp. [6] = assay: Oral dose of 2.5 mg/Kg (30 min prior to instillation of elastase) was tested for the inhibition of elastase-induced lung hemorrhage in hamster; Not active; format: functional, organism-based; details: Cricetulus griseus
Cricetinae gen. sp. [7] = assay: Oral dose of 2.5 mg/Kg (30 min prior to instillation of elastase) was tested for the inhibition of elastase-induced lung hemorrhage in hamster; format: functional, Cricetulus griseus
Cricetinae gen. sp. [8] = assay: Compound at an oral dose of 2.5 mg/Kg (90 min prior to instillation of elastase) was tested for the inhibition of elastase-induced lung hemorrhage in hamster; Not active; format: functional, organism-based; details: Cricetulus griseus
Cricetinae gen. sp. [9] = assay: Oral dose of 2.5 mg/Kg (90 min prior to instillation of elastase) was tested for the inhibition of elastase-induced lung hemorrhage in hamster; format: functional, Cricetulus griseus
Cricetinae gen. sp. [10] = assay: Compound at an oral dose of 20 mg/Kg (90 min prior to instillation of elastase) was tested for the inhibition of elastase-induced lung hemorrhage in hamster; format: functional, Cricetulus griseus

Row | Ki (Neutrophil elastase) [nM] | logP [3] | SMILES | inhibition (Cricetinae gen. sp. [1]) | inhibition in vivo at 20 mg/kg (Cricetinae gen. sp. [5]) [%] | other results
1 | 57 | 2.9 | CC(C)C(NC(=O)Cn1c(C2CCCCC2)ncc(NC(=O)OCc2ccccc2)c1=O)C(=O)C(F)(F)F (configuration not stated) | inactive | – | solubility [2]: 42 µg/mL (≈ 78.3 µM)
2 | 20 | – | CC(C)C(NC(=O)Cn1c(-c2cc(F)cc(F)c2)ncc(NC(=O)OCc2ccccc2)c1=O)C(=O)C(F)(F)F (configuration not stated) | – | 43 | Ratio [4]: 230
3 | 23 | – | CC(C)C(NC(=O)Cn1c(-c2ccc(F)cc2)ncc(NC(=O)OCc2ccncc2)c1=O)C(=O)C(F)(F)F (configuration not stated) | inactive | – | –
4 | 42 | 2.3 | CC(C)C(NC(=O)Cn1c(-c2ccc(C(F)(F)F)cc2)ncc(NC(=O)OCc2ccccc2)c1=O)C(=O)C(F)(F)F (configuration not stated) | inactive | – | Ratio [4]: 164; solubility [2]: 25 µg/mL (≈ 41.8 µM)
5 | 170 | 2.6 | CC(C)c1ncc(NC(=O)OCc2ccccc2)c(=O)n1CC(=O)NC(C(=O)C(F)(F)F)C(C)C (configuration not stated) | inactive | – | Ratio [4]: 100; solubility [2]: 40 µg/mL (≈ 80.6 µM)
6 | 0.96 | – | Cc1cncc(C)c1COC(=O)Nc1cnc(-c2ccc(F)cc2)n(CC(=O)NC(B2OC(C)(C)C(C)(C)O2)C(C)C)c1=O (configuration not stated) | – | – | inhibition (Cricetinae gen. sp. [6]): inactive
7 | – | – | COC(=O)Nc1cnc(-c2ccc(F)cc2)n(CC(=O)NC(C(=O)C(F)(F)F)C(C)C)c1=O (configuration not stated) | – | 73 | inhibition in vivo at 2.5 mg/kg (Cricetinae gen. sp. [7]): 39%
8 | 42 | – | COC(=O)Nc1cnc(-c2cccs2)n(CC(=O)NC(C(=O)C(F)(F)F)C(C)C)c1=O (configuration not stated) | – | 80 | inhibition in vivo at 2.5 mg/kg (Cricetinae gen. sp. [7]): 49%; inhibition (Cricetinae gen. sp. [8]): inactive
9 | 0.21 | – | CC(C)C(NC(=O)Cn1c(-c2ccc(F)cc2)ncc(NS(=O)(=O)C2CCCCC2)c1=O)B1OC(C)(C)C(C)(C)O1 (configuration not stated) | – | – | inhibition in vivo at 2.5 mg/kg (Cricetinae gen. sp. [7]): 31%; inhibition (Cricetinae gen. sp. [8]): inactive
10 | 22 | – | CC(C)C(NC(=O)Cn1c(-c2ccc(F)cc2)ncc(NC(=O)OCc2ccccn2)c1=O)C(=O)C(F)(F)F (configuration not stated) | inactive | – | –
11 | 7.7 | – | COC(=O)Nc1cnc(-c2ccc(F)cc2)n(CC(=O)NC(B2OC(C)(C)C(C)(C)O2)C(C)C)c1=O (configuration not stated) | – | – | inhibition (Cricetinae gen. sp. [6]): inactive
12 | 26 | – | CCNc1cnc(-c2cccs2)n(CC(=O)NC(C(=O)C(F)(F)F)C(C)C)c1=O (configuration not stated) | – | 52 | inhibition in vivo at 2.5 mg/kg (Cricetinae gen. sp. [9]): 32%
13 | 9 | – | CC(C)C(NC(=O)Cn1c(-c2ccc(NC=O)cc2)ncc(NC(=O)OCc2ccccc2)c1=O)C(=O)C(F)(F)F (configuration not stated) | inactive | – | –
14 | – | > 4 | CC(C)C(NC(=O)Cn1c(-c2ccccc2)ccc(NC(=O)OCc2ccccc2)c1=O)C(=O)C(F)(F)F (configuration not stated) | inactive | – | –
15 | 43 | – | CC(C)C(NC(=O)Cn1c(-c2ccc(NC(=O)C(F)(F)F)cc2)ncc(NC(=O)OCc2ccccc2)c1=O)C(=O)C(F)(F)F (configuration not stated) | inactive | – | –
16 | 23 | – | CSC(=O)Nc1cnc(-c2ccc(F)cc2)n(CC(=O)NC(C(=O)C(F)(F)F)C(C)C)c1=O (configuration not stated) | – | – | inhibition in vivo at 2.5 mg/kg (Cricetinae gen. sp. [9]): 50%
17 | 11 | 2 | CC(C)C(NC(=O)Cn1c(-c2cccs2)ncc(NC(=O)OCc2ccccc2)c1=O)C(=O)C(F)(F)F (configuration not stated) | – | 57 | Ratio [4]: 162; solubility [2]: 48 µg/mL (≈ 89.5 µM)
18 | 100 | – | CC(C)C(NC(=O)Cn1c(-c2cccs2)ncc(NC=O)c1=O)C(=O)C(F)(F)F (configuration not stated) | – | – | inhibition in vivo at 20 mg/kg (Cricetinae gen. sp. [10]): 58%; inhibition in vivo at 2.5 mg/kg (Cricetinae gen. sp. [9]): 37%
19 | – | – | CC(C)C(NC(=O)Cn1c(-c2ccc(N)cc2)ncc(NS(C)(=O)=O)c1=O)C(=O)C(F)(F)F (configuration not stated) | inactive | – | –
20 | – | 2.2 | CC(C)C(NC(=O)Cn1c(-c2ccc(F)cc2)ncc(NC(=O)OCc2ccccc2)c1=O)C(=O)C(F)(F)F (configuration not stated) | – | 54 | solubility [2]: 6.9 µg/mL (≈ 12.6 µM)

— ChEMBL document CHEMBL1128575, “Nonpeptidic inhibitors of human leukocyte elastase. 5. Design, synthesis, and X-ray crystallography of a series of orally active 5-aminopyrimidin-6-one-containing trifluoromethyl ketones” (J Med Chem, 1995)
